# Paper PMC10683372 (Protein Science : A Publication of the Protein Society, 2023)
# Several values for one entry are separate records, joined by “and”; a condition that tells them apart may be missing. Equal values may be shown once. Read-outs that look alike come from different tables or passages of the source. Bridge positions count the residues as written; N and C are the ends. Square brackets hold non-standard residues; d marks the D form. Ends that are not written are not given here. Peptide text beside a SMILES is read from it. Dip = N[C@H](C(=O)O)C(c1ccccc1)c1ccccc1; 1Nal = N[C@@H](Cc1cccc2ccccc12)C(=O)O; 2Nal = N[C@@H](Cc1ccc2ccccc2c1)C(=O)O; Cha = N[C@@H](CC1CCCCC1)C(=O)O; Nle = CCCC[C@H](N)C(=O)O
# Key:
# [1] = octanol/water; of the organic molecule corresponding to the amino acid side chain at position 3, not of the peptide; ref Sangster, 1989; cited from earlier work
# α‐thrombin (αT) = molecular target: T1, α‐thrombin (αT) (Homo sapiens, UniProt P00734); assay: Tight-binding inhibition of αT amidolytic activity on chromogenic substrate S2238; assay type: biochemical
# T1 construct: goes from Thr1 of the A-chain to Glu295 of the B-chain
# Experimental: Enzyme inhibition assays were all performed at 25 ± 0.1°C in TBS (10 mM Tris–HCl pH 7.4, 0.1% PEG‐8000 w/v) in the presence of 0.15 M or 0.4 M NaCl, using a Jasco double‐beam V‐630 spectrophotometer equipped with a Peltier model PAC‐740 temperature control system (De Filippis et al., [1999]). Tight‐binding inhibition assays were performed by pre‐incubating αT (500 pM) for 30 min with increasing inhibitor concentrations [I]. The reaction started by the addition of the chromogenic substrate S2238 (20 μM) and the release of p‐nitroaniline (pNA) was continuously monitored at 405 nm, using a molar absorptivity of 9920 M^−1∙cm^−1.
# (§1) and added with the chromogenic substrate S2238 (100 mM). The values of vi/v0, were plotted as
# (§2) a function of the inhibitor, as indicated, where v0 and vi are the steady state velocities in the
# (§3) absence or presence of the inhibitor. The data points were interpolated with eq. 3, to yield Kiapp ,
# (§4) which was then converted to KI using eq. 4. (B) Slow-binding inhibition. Assays were
# (§5) performed by adding aT (50 pM) into a solution of S2238 (40 mM) in the presence of
# (§6) Each progress curve was interpolated with
# (§7) eq. 5 to obtain the corresponding observed kinetic constant, kobs.Interpolation of the data points
# with eq. 6 in the plot of kobs vs. [I], allowed us to estimate the values of kon and koff (see
# Methods for details). All measurements were conducted in at 25 ± 0.1°C in TBS, pH 7.4. The
# data points are the average of three independent measurements, with error bars as ±SD.
# αT [2] = molecular target: T2, αT (Homo sapiens, UniProt P00734, S568A)
# [3] = molecular target: T3, α‐Thrombin mutant R93A (exosite II) (Homo sapiens, UniProt P00734, R452A); assay: Slow binding inhibition of thrombin mutant R93A; assay type: biochemical; details: slow binding inhibition model
# T3 construct: made in house
# Experimental: Single X → Ala mutants of αT at either exosite I (Phe34Ala, Lys73Ala, Lys110Ala) and II (Arg93Ala, Arg101Ala) were produced and purified to homogeneity as earlier reported (Acquasaliente et al., [2016]; Pozzi et al., [2013]) (Figure S3) and incubated with haemadin to extract kinetic (k on and k off) and equilibrium (K I) constants of αT inhibition. […]
# When slow binding inhibition assays were performed, αT (50 pM) was added to solutions of S2238 (50 μM) in the presence of increasing inhibitor (I) concentrations. From the time‐course release of pNA, [P]t, an observed kinetic constant (k obs) of substrate hydrolysis could be determined as a fitting parameter by interpolating each progress curve at increasing [I] to Equation (5) (Arcone et al., [2009]): (5) Pt=vs∙t+vo−vs/kobs∙1−e^−kobs∙t, where v 0 and v s is the initial or steady state velocity at each [I]. The association (k on) and dissociation (k off) rate constants of αT‐haemedin interaction were determined as fitting parameters by interpolating the data points of k obs as a function of [I] with Equation (6): (6) kobs=kon/1+S/Km∙I+koff. […]
# [4] = molecular target: T4, recombinant wild type thrombin (αT) (Homo sapiens, UniProt P00734); assay: Slow binding inhibition of thrombin amidolytic activity (S2238 progress curves); assay type: biochemical; details: slow binding inhibition model (Eq. 5, 6), 25°C, TBS pH 7.4
# T4 construct: made in house
# Experimental: as §1, §2, §3, §4, §5, §6, §7
# with eq. […]
# αT [5] = molecular target: T2, αT; set-up: made in house; details: cited from earlier work
# Description: Abstract Hirudin from Hirudo medicinalis is a bivalent α‐Thrombin (αT) inhibitor, targeting the enzyme active site and exosite‐I, and is currently used in anticoagulant therapy along with its simplified analogue hirulog. […] At variance with hirudin, haemadin targets exosite‐II and therefore (besides the free protease) it also blocks thr ... || The relevance of pharmacological applications of hirudin and its analogues has stimulated intensive research on hematophagous organisms, allowing identification of novel αT protein inhibitors, including the isolation of haemadin from the Indian leech Haemadipsa sylvestris (Strube et al., [1993]). […] However, haemadin binds to the fast form only 7‐fold more tightly than to the Na^+‐free (slow) form, with a coupling free energy ΔG c = ΔG b(fast) − ΔG b(slow) = −1.1 kcal/mol. For comparison, full‐length hirudin and its N‐terminal domain 1–47, bind more tightly to the fast form by ~30‐fold (ΔG c = −2.1 kcal/mol), compared to the slow form (De Filippis et al., [2005]; Di Cera et al., [1997]). The higher af ... || (+ 1 further places)
# [6] = molecular target: thrombin R93A (exosite II) (Homo sapiens, UniProt P00734, R452A); assay: biochemical
# Experimental: (§8) The reaction was started by addition of the chromogenic substrate S2238 (50 μM). Values of v i/v 0 are plotted as a function of inhibitor concentration, where v 0 and v i are the steady state velocities of S2238 hydrolysis in the absence or presence of inhibitor. Data points are the average of three independent measurements, with errors as ±SD. […] Data points in binding/inhibition measurements are the average of three independent measurements, with errors as ±SD.
# (§9) Fluorescence measurements were performed at 25 ± 0.1°C in Tris buffered saline (TBS, 20 mM Tris–HCl, pH 7.4, 0.15 M NaCl, 0.1% PEG‐8000) in a 1 cm‐pathlength cuvette, using a Jasco FP‐6500 spectrofluorimeter, equipped with a Peltier model ETC‐273T temperature control system. […] Briefly, to a solution of αT (50 nM) were added, under gentle magnetic stirring, incremental volumes of ligand stock solutions. The samples were excited at 280 nm (5/5 excitation/emission slit) and the emission intensities were recorded at 334 nm, after subtracting the corresponding spectra of the ligands alone. Fluorescence data were corrected for sample dilution, which was always <2% at the end of the titration. […]
# (§10) When the binding of PABA was studied, samples were excited at 336 nm and the emission of PABA was recorded at 376 nm, after baseline subtraction and correction for inner filter effect, as detailed elsewhere (Pontarollo et al., [2017]). […]
# [7] = molecular target: recombinant wild‐type thrombin (Homo sapiens, UniProt P00734); assay: biochemical
# Experimental: as §8, §9, §10
# [8] = Thermal denaturation monitored by far‐UV CD; assay type: physicochemical; details: PBS pH 7.4, protein 0.69 mg/mL; CD at 233 nm (haemadin) or 220 nm (hirudin); heating 40°C·h^−1; inflection point, rough estimate
# Experimental: CD spectra were recorded on a Jasco J‐810 spectropolarimeter equipped with a Peltier model ETC‐273 T temperature control system (De Filippis, Polverino de Laureto, et al., [1996]). Far and Near UV‐CD spectra were recorded in a 0.1‐ or 1 cm‐pathlength quartz cell at a peptide/protein concentration of 0.47 or 1 mg/mL, respectively. All measurements were performed in phosphate buffered saline (PBS, 10 mM Na2HPO4 pH 7.4, 0.15 M NaCl) at 25 ± 0.1°C. The final spectra resulted from the average of four accumulations after base line subtraction. CD data were expressed as the mean residue ellipticity, [θ] = θ obs·MRW/(10·l·c), where θ obs is the observed signal in degrees, MRW is the mean residue weight, l is the cuvette pathlength in cm, and c is the protein concentration in g∙mL^−1. Stability measurements were carried out by recording the change of the CD signal in the far‐UV region as a function of sample temperature, using a 0.1‐cm pathlength cuvette and linear heating rate of 40°C∙h^−1. The reversibility of thermal unfolding was determined by measuring the recovery of the CD signal upon cooling to the starting temperature. The melting temperature (T m) was estimated from the first‐derivative of the thermal denaturation curve (De Filippis, Vassiliev, et al., [1996]; Frigerio et al., [1996]).
# αT [9] = details: at the Arg‐X bond; ref Maraganore et al., 1990; Lombardi et al., 1996, 1999; cited from earlier work
# Description: The fragment‐based approach is quite common in drug discovery and has been already exploited for the production of hirulogs, hirutonins, and hirunorms as simplified hirudin analogues (Lombardi et al., [1996]; Maraganore et al., [1990]; Szewczuk et al., [1993]). […] As a result, hirulog I (Angiomax®) is slowly ...
compound,measurement,setting,value
CCCC[C@H](NC(=O)CNC(=O)[C@H](Cc1ccccc1)NC(=O)[C@H](CCCNC(=N)N)NC(=O)[C@@H](N)[C@@H](C)CC)C(=O)NCC(=O)N[C@@H](CCCCN)C(=O)N[C@H](C(=O)N1CCC[C@H]1C(=O)NCC(=O)O)C(C)C [Met5Nle] (H-IRFG[Nle]GKVPG-OH),Log P,[1],2.73
same,Ki,α‐thrombin (αT),1900 ± 100 nM
CCCC[C@H](NC(=O)CNC(=O)[C@H](CC1CCCCC1)NC(=O)[C@H](CCCNC(=N)N)NC(=O)[C@@H](N)[C@@H](C)CC)C(=O)NCC(=O)N[C@@H](CCCCN)C(=O)N[C@H](C(=O)N1CCC[C@H]1C(=O)NCC(=O)O)C(C)C [Phe3Cha] (H-IR[Cha]G[Nle]GKVPG-OH),Log P,[1],3.88
same,Ki,α‐thrombin (αT),3800 ± 100 nM
CCCC[C@H](NC(=O)CNC(=O)[C@@H](NC(=O)[C@H](CCCNC(=N)N)NC(=O)[C@@H](N)[C@@H](C)CC)C(c1ccccc1)c1ccccc1)C(=O)NCC(=O)N[C@@H](CCCCN)C(=O)N[C@H](C(=O)N1CCC[C@H]1C(=O)NCC(=O)O)C(C)C [Phe3DiP] (H-IR[Dip]G[Nle]GKVPG-OH),Log P,[1],4.80
same,Ki,α‐thrombin (αT),7400 ± 400 nM
CCCC[C@H](NC(=O)CNC(=O)[C@H](Cc1ccc(O)cc1)NC(=O)[C@H](CCCNC(=N)N)NC(=O)[C@@H](N)[C@@H](C)CC)C(=O)NCC(=O)N[C@@H](CCCCN)C(=O)N[C@H](C(=O)N1CCC[C@H]1C(=O)NCC(=O)O)C(C)C [Phe3Tyr] (H-IRYG[Nle]GKVPG-OH),Log P,[1],1.97
same,Ki,α‐thrombin (αT),6600 ± 400 nM
CCCC[C@H](NC(=O)CNC(=O)[C@H](Cc1cccc2ccccc12)NC(=O)[C@H](CCCNC(=N)N)NC(=O)[C@@H](N)[C@@H](C)CC)C(=O)NCC(=O)N[C@@H](CCCCN)C(=O)N[C@H](C(=O)N1CCC[C@H]1C(=O)NCC(=O)O)C(C)C [Phe3αNal] (H-IR[1Nal]G[Nle]GKVPG-OH),Log P,[1],4.00
CCCC[C@H](NC(=O)CNC(=O)[C@H](Cc1ccc2ccccc2c1)NC(=O)[C@H](CCCNC(=N)N)NC(=O)[C@@H](N)[C@@H](C)CC)C(=O)NCC(=O)N[C@@H](CCCCN)C(=O)N[C@H](C(=O)N1CCC[C@H]1C(=O)NCC(=O)O)C(C)C [Phe3βNal] (H-IR[2Nal]G[Nle]GKVPG-OH),Log P,[1],4.00
same,Ki,α‐thrombin (αT),190 ± 10 nM
CCCC[C@H](NC(=O)CNC(=O)[C@H](Cc1ccc2ccccc2c1)NC(=O)[C@H](CCCNC(=N)N)NC(=O)[C@@H](N)[C@@H](C)CC)C(=O)NCC(=O)N[C@@H](CCCCN)C(=O)N[C@H](C(=O)N1CCC[C@H]1C(=O)NCC(=O)NCC(=O)NCC(=O)N1CCC[C@H]1C(=O)N[C@@H](CCCCN)C(=O)N1CCC[C@H]1C(=O)N[C@@H](CO)C(=O)N[C@@H](CO)C(=O)N[C@@H](CCC(=O)O)C(=O)N[C@@H](Cc1ccccc1)C(=O)N[C@@H](CCC(=O)O)C(=O)N[C@@H](CCC(=O)O)C(=O)N[C@@H](Cc1ccccc1)C(=O)N[C@@H](CCC(=O)O)C(=O)N[C@H](C(=O)N[C@@H](CC(=O)O)C(=O)N[C@@H](CCC(=O)O)C(=O)N[C@@H](CCC(=O)O)C(=O)N[C@@H](CCC(=O)O)C(=O)N[C@@H](CCCCN)C(=O)O)[C@@H](C)CC)C(C)C [haemanorm] (H-IR[2Nal]G[Nle]GKVPGGGPKPSSEFEEFEIDEEEK-OH),Ki,α‐thrombin (αT),0.8 nM
same,resistance to proteolysis by αT at the Arg2‐βNal bond,αT [2],fully resistant
"IRFGMGKVPCPDGEVGYTCDCGEKICLYGQSCNDGQCSGDPKPSSEFEEFEIDEEEK (disulfide 10-19, 21-32, 26-37) [haemadin]",koff,[3],3.68e-05 ± 1e-07 s⁻¹
same,kon,[3],2.998e+08 ± 300000 M⁻¹ s⁻¹
same,Ki,α‐thrombin (αT),0.0015 ± 5e-05 nM
same,koff,[4],4.83e-05 ± 2e-07 s⁻¹
same,kon,[4]; αT 50 pM added to S2238 plus inhibitor,2.253e+08 ± 200000 M⁻¹ s⁻¹
"N‐terminal domain 1–40: N‐terminal domain 1–40 of haemadin (Richardson et al., 2002)",Ki,"αT [5]; ref Richardson et al., 2002",5 nM
Phe3Trp: Phe3′ → Trp analogue of Haem(1–10),Ki,"α‐thrombin (αT); 25 ± 0.1°C, TBS, αT 250 pM incubated with peptide, S2238 50 μM, tight‐binding model (Eq. 3, 4), average of three independent measurements ± SD, read-out: K I",2900 ± 300 nM
SEFEEFEIDEEEK [Haem(45–57)],Kd,[6],1180 ± 90 nM
same,Kd,[7],1600 nM
VSYTD [reference compound],inhibition of αT,α‐thrombin (αT); not shown,lacks any significant inhibition
hirudin,coupling free energy ΔG c,"αT [5]; fast vs slow form, ref De Filippis et al., 2005, Di Cera et al., 1997",-2.1 kcal/mol
same,fold tighter binding to fast form than to slow form,"αT [5]; ref De Filippis et al., 2005, Di Cera et al., 1997",~ 30 fold
same,melting temperature (T m),[8],63 ± 1 °C and ~ 63 °C
hirulog I: synthetic bivalent analogue of hirudin,cleavage by αT,αT [9],slowly cleaved
